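Values below derive from 48-hour exposures of cells grown in 96-well plates, with endpoints linearly interpolated between the two concentrations bracketing the appropriate inhibition level. Here, GI50 denotes the concentration required for 50% inhibition of growth. TGI is the concentration that stops growth completely.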
Experiments:
Assay in all cases: NCI-60 cell line screen, 48 h
CAKI-1 renal = system: CAKI-1 renal
NCI/ADR-RES ovarian = system: NCI/ADR-RES ovarian
OVCAR-3 ovarian = system: OVCAR-3 ovarian
SF-539 CNS = system: SF-539 CNS
MCF7 breast = system: MCF7 breast
HOP-92 NSCLC = system: HOP-92 NSCLC
HCC-2998 colon = system: HCC-2998 colon
SK-OV-3 ovarian = system: SK-OV-3 ovarian
SK-MEL-5 melanoma = system: SK-MEL-5 melanoma
NCI-H226 lung = system: NCI-H226 lung

| Structure (SMILES) | GI50 (CAKI-1 renal) [µM] | TGI (CAKI-1 renal) [µM] | GI50 (NCI/ADR-RES ovarian) [µM] | TGI (NCI/ADR-RES ovarian) [µM] | GI50 (OVCAR-3 ovarian) [µM] | TGI (OVCAR-3 ovarian) [µM] | GI50 (SF-539 CNS) [µM] | TGI (SF-539 CNS) [µM] | GI50 (MCF7 breast) [µM] | TGI (MCF7 breast) [µM] | GI50 (HOP-92 NSCLC) [µM] | TGI (HOP-92 NSCLC) [µM] | GI50 (HCC-2998 colon) [µM] | TGI (HCC-2998 colon) [µM] | GI50 (SK-OV-3 ovarian) [µM] | TGI (SK-OV-3 ovarian) [µM] | GI50 (SK-MEL-5 melanoma) [µM] | TGI (SK-MEL-5 melanoma) [µM] | GI50 (NCI-H226 lung) [µM] | TGI (NCI-H226 lung) [µM] |
| --- | --- | --- | --- | --- | --- | --- | --- | --- | --- | --- | --- | --- | --- | --- | --- | --- | --- | --- | --- | --- |
| COc1cc(/C=C2\CN(S(=O)(=O)c3ccc(C)cc3)C/C(=C\c3cc(CN4CCCCC4)c(O)c(OC)c3)C2=O)cc(CN2CCCCC2)c1O | 1.73 | 3.27 | 1.22 | 3.77 | 1.85 | 3.59 | 1.74 | 3.31 | 0.375 | 2.39 | 1.55 | 3.19 | 1.78 | 3.37 | 1.91 | 3.6 | 1.81 | 3.47 | 1.76 | 4.29 |
| NC(Cc1c[nH]c2ccccc12)C(=O)O (stereo not given) | – | > 300 | – | > 300 | – | > 300 | – | > 300 | – | > 300 | – | > 300 | – | > 300 | – | > 300 | – | > 300 | – | > 300 |

From PubChem BioAssay (NCI)
